Data set [1] deals with human 201T lung adenocarcinoma cells (orthotopic xenografts). As to the kind of experiment: orthotopic 201T xenografts in nude mice, mediastinal block weight. The data set is classed as in vivo, NCr athymic nude mice. As to conditions: 60 mg/kg at days 2, 4, 6, 8, 10, 12, sacrifice day 56. As to the method: Pathogen-free 4 to 6 week-old male NCr athymic nude mice (Taconic, Germantown, N.Y.) were housed in sterilized, filter-topped cages kept in laminar flow isolators (Forma Scientific, Marietta, Ohio), and fed autoclaved food and water ad libitum. Four animals were housed in each cage. Mice were acclimated to the vivarium for one week prior to their use in study protocols. All procedures involving the mice were performed under sterile conditions in a laminar flow hood (Forma Scientific). All studies were approved by the institutional animal care and use committee.
Human PC-3 prostate cancer cells (2×10^6 cells; American Type Culture Collection CRL-1435) were inoculated subcutanteously into the flanks of nude mice in 0.1 ml HBSS (Hank's balanced salt solution) (Life Technologies). For implantation of orthotopic 201T cells, animals were fully anesthetized in a Harvard small animal anesthesia chamber using nebulized Metafane (Pitman Moore, Inc., Washington Crossing, N.J.). […] The needle was advanced through the chest wall into the lung tissue, and the tumor cell inoculum of 2×10^6 cells was then dispersed in a final volume of 0.1 ml HBSS/Matrigel (1:1 ratio). […] For tumors implanted subcutaneously, tumors were measured in a blind fashion with dial calipers, and the volume was calculated using the formula ½*π(W*L*H). […]

In the next data set the test system is 201T cells. The data set is described as follows: in vitro cell growth assay, [3H]thymidine incorporation, 201T. The data set is classed as cell-based, human. As to the method: (§1) The human prostatic carcinoma cell line PC-3 was grown in RPMI 1640 (Life Technologies, Grand Island, […].) supplemented with 10% fetal bovine serum (“FBS”, Life Technologies). The human cell line 201T was established from a poorly differentiated lung adenocarcinoma, as previously described using the method of J. M. Siegfried et al., “Secretion of autocrine growth factors by cultured lung tumors: effects on neoplastic lung epithelial cells,” Lung Cancer, vol. 4, pp. 205–209 (1988). See also J. P. Hamide et al., “Percutaneous implantation of non-small cell lung carcinoma: technique and observations,” Academ. Radiolo., vol. 4, pp. 629–633 (1997). The cell line was grown in a medium conditioned for 48 hours by the cell line A549 (ATCC CCL-185) containing 1% FBS (HyClone Laboratories, Logan, Utah) as previously described in J. M. Siegfried, “Culture of primary lung tumors using medium conditioned by a lung carcinoma cell line,” J. Cell. Biochem., vol. 41, pp. 91–95 (1988). This medium is referred to as CM+1% FBS.
PC-3 cells were exposed to 0, 0.1, 1, 2.5, 5, and 10 μM BN-50730 in RPMI medium supplemented with 10% FBS and [^3H]thymidine (Amersham Life Science, Arlington Heights, Ill.). 201T cells were exposed to 0, 0.1, 1, 2.5, 5, and 10 μM BN-50730 in CM+1% FBS supplemented with [^3H]thymidine. […] PC-3 and 201T cells were also exposed to 10 μM BN-50730 for 24, 48, 72 and 144 hours, and cell growth assessed as above.
On the technique in general: Uptake of a labelled nucleoside into DNA is a usual measure of proliferation.

The test system of the next data set is bFGF. As to the kind of experiment: Western blot analysis of cell lysates for bFGF. The data set is classed as cell-based, human. The following applies: 5 μM, 18 hr prior to cell harvest. As for the experimental part: HUVEC, PC-3, and 201T cells were grown to 75% confluency in the appropriate growth media. BN-50730 (5 μM) or vehicle (DMSO) was added to each cell line 18 hr prior to cell harvest. Cells were washed three times in phosphate-buffered saline (“PBS”) and scraped into Lemely buffer which lacked bromophenol blue and β-mercaptoethanol (0.1 M NaCl, 0.01M Tris-HCl (pH 7.6), 0.001 M EDTA, 1 μg/ml aprotinin, 100 μg/ml phenylmethylsulfonyl flouride, 2% SDS, and 10% glycerol). The cell suspension was boiled for 10 min and then immediately stored at −20° C. Protein levels were quantified using a Bio-Rad Protein Assay (Bio-Rad, Hercules, Calif.). Protein samples (20 μg) were separated through a 10–20% denaturing gradient acrylamide gel in Tris-glycine buffer and transferred to nitrocellulose (Bio-Rad) by electrophoretic blotting. […] Primary antibody was detected using alkaline phosphatase-conjugated goat anti-mouse IgG (Bio-Rad).
The methods were as in Example 1. Lysates were analyzed from HUVEC cells grown in the presence of DMSO (Lane 1) or 5 μM BN-50730 (Lane 2); PC-3 cells grown in the presence of DMSO (Lane 3) or 5 μM BN-50730 (Lane 4); and 201T cells grown in the presence of DMSO (Lane 5) or 5 μM BN-50730 (Lane 6). […]
In general terms: In western blotting, separated proteins are transferred to a membrane and probed.

Another data set relates to PC-3 cells. The data set is described as follows: in vitro cell growth assay, [3H]thymidine incorporation, PC-3. The data set is classed as cell-based, human. As to the method:
as §1
PC-3 cells were exposed to 0, 0.1, 1, 2.5, 5, and 10 μM BN-50730 in RPMI medium supplemented with 10% FBS and [^3H]thymidine (Amersham Life Science, Arlington Heights, Ill.). […] PC-3 and 201T cells were also exposed to 10 μM BN-50730 for 24, 48, 72 and 144 hours, and cell growth assessed as above. […]

Data set [2] is described as follows: visual observation of side effects in treated mice. Format: in vivo, NCr athymic nude mice. As to conditions: mice treated at any dose.

SMILES strings stand for the structures.

In the case of `COc1ccc(NC(=O)N2CCc3c(sc4c3C(c3ccccc3Cl)=NCc3nnc(C)n3-4)C2)cc1` [BN-50730, tetrahydro-4,7,8,10 methyl-1 (chloro-2 phenyl)-6 (methoxy-4 phenyl-carbomoyl)-9 pyrido [4′,3′-4,5] thieno [3,2-f] triazolo-1,2,4[4,3-α]diazepine-1,4], in data set [1] (p=0.011, Student's t-test), the “mediastinal block weight, placebo-treated vs LAU-8080-treated” value is given as “significantly larger in placebo-treated animals”. The “mediastinal weight vs control litter mates without tumor cell implantation” value in data set [1] (p=0.800, Student's t-test) was “the same as for control liter mates”. In addition, the “201T cell growth, time course: onset of growth inhibition” value in the data set with 201T cells (10 μM, six-day time course) was “growth inhibition was manifested after 72 hr of exposure”. Also, in the data set with 201T cells (10 μM, up to 144 hr, p=0.081, F-test), the “201T cell growth, time course curves treated vs untreated” value was “not statistically different”. Also, the “201T cell growth, concentration response” value with 201T cells (0.01-10 μM for four days, p<0.005 at or above 1.0 μM) is reported as “concentration-dependent reduction in growth”. The “production of bFGF by 201T and PC-3 cells” value in the data set with bFGF is recorded as “does not inhibit the production of bFGF”. For the same compound, the “PC-3 cell proliferation, time course” value in the data set on PC-3 cells (10 μM at 1, 2, 3 or 6 days, p=0.556, F-test) is “no effect”. In the data set on PC-3 cells (0.01, 0.1, 1, 2.5, 5, 10 μM for 4 days, p=0.529 for 10 μM), the “PC-3 cell proliferation, concentration response” value is listed as “not affected”. The “side effects, visual observations” value in data set [2] is “no apparent side effects”.
